# Results taken from patent US6994671B2, “Apparatus and method for screening, olfactory mucosa stimulating compound found by the screening method, and therapeutic apparatus and electrode section for measurement” (Matsushita Electric Industrial Co., Ltd., priority 2000, dated 2006).
# Assays:
# olfactory mucosa = experiment: Electrical signal in the olfactory bulb on spraying the compound toward the olfactory mucosa, measured with implanted micro electrodes; assay type: in vivo; details: rat, sprayed with air for 5 minutes; FIG. 5 (a) vs (b)
# From the text: A two-week-old rat was used as a test animal. The measuring electrode portion 10 shown in FIG. 4 was implanted into the rat by a surgical operation. In the measuring electrode portion 10, the length of the micro electrode 16a was 100 μm, and the interval between adjacent micro electrodes 16a in each electrode column 17 was 500 μm. Platinum was used as a conductive material for the needle-shaped conductive lead 16. Polyimide was used as the insulative film. […] In order to attach the measuring electrode portion 10 to the rat, Nembutal (barbiturate) was injected into the abdominal cavity of the rat in a quantity equal to […], so as to anesthetize the rat, and the anesthetized rat was fixed in the prone position. […] The response induced in the olfactory bulb of the rat was recorded in the form of an electrical signal from each micro electrode 16a of the measuring electrode portion 10. […] At the same time, the blood pressure and the heart rate of the rat were measured when cineole was sprayed on the rat. […] After the olfactory bulb of the rat had stabilized, cineole was sprayed into the test animal fixing device 32 together with air at an oxygen concentration 5% higher than normal air, and a response of the olfactory bulb of the rat obtained at that time was recorded in the form of an electrical signal from each micro electrode 16a of the measuring electrode portion 10.
# rat = experiment: Blood pressure and heart rate of the rat while the compound is sprayed; assay type: in vivo
# From the text: The test animal fixing device 32 has a means for measuring physiological responses induced in an organism, such as the blood pressure, the heart rate, etc., of the test animal fixed therein. Measurement results obtained by the measuring means are supplied to the processing apparatus 36. Further, measurement results of the blood pressure, the heart rate, and the like, of the rat fixed in the test animal fixing device 32, which are obtained when the air containing the olfactory mucosa stimulating compound is sprayed from the atomizing nozzle 33, are supplied to the processing apparatus 36. The processing apparatus 36 determines the efficacy of the olfactory mucosa stimulating compound sprayed on the rat, based on the analyzed electrical signal pattern in the olfactory bulb and the measurement results of the blood pressure, the heart rate, and the like, of the rat. For example, if a decrease in the blood pressure of the rat is detected as a result of a stimulation of the olfactory mucosa by an olfactory mucosa stimulating compound, it is determined that the olfactory mucosa stimulating compound suppresses brain cells so as to induce a physiological response that lowers the blood pressure. Accordingly, the olfactory mucosa stimulating compound is identified as a compound effective in lowering the blood pressure. In this case, the electrical signal pattern obtained by the measuring electrode portion 10 is stored as data in the processing apparatus 36. After such an implantation operation of the measuring electrode portion 10, the rat was reared for three weeks under an environment which was cleaned with activated carbon so as to remove substances that produce aromas. Then, three weeks after the surgical operation, the rat was fixed in the test animal fixing device 32 of the screening apparatus 1 shown in FIG. 1. The terminal line 38, which extended from the body of the rat, was connected to the signal amplitude stimulating apparatus 34 outside the test animal fixing device 32. […] The response induced in the olfactory bulb of the rat was recorded in the form of an electrical signal from each micro electrode 16a of the measuring electrode portion 10. […] At the same time, the blood pressure and the heart rate of the rat were measured when cineole was sprayed on the rat. […] After the olfactory bulb of the rat had stabilized, cineole was sprayed into the test animal fixing device 32 together with air at an oxygen concentration 5% higher than normal air, and a response of the olfactory bulb of the rat obtained at that time was recorded in the form of an electrical signal from each micro electrode 16a of the measuring electrode portion 10.
# [1] = cineole sprayed with air, FIG. 6
# [2] = result stated for normal oxygen concentration
smiles,measurement,setting,value
CC12CCC(CC1)C(C)(C)O2 [cineole],"stimulation of the olfactory mucosa (electrical signals of the olfactory bulb, 16 micro electrodes)",olfactory mucosa,stimulated the olfactory mucosa
same,blood pressure,rat; [1],increases in the blood pressure
same,heart rate,rat; [1],increases
same,"blood pressure, air at normal oxygen concentration versus air at oxygen concentration 5% higher than normal air",rat; [2],increased more greatly
same,"heart rate, air at normal oxygen concentration versus air at oxygen concentration 5% higher than normal air",rat; [2],increased more greatly
